Among the data in patent US7576094B2, “Spiro derivatives as lipoxygenase inhibitors” (Eli Lilly and Company, priority 2004, dated 2009) are IC50 and EC50 values, retold here.

Assay [1] deals with T1, human recombinant 5-Lipoxygenase (Homo sapiens, UniProt P09917).
T1 sequence (P09917 1-674): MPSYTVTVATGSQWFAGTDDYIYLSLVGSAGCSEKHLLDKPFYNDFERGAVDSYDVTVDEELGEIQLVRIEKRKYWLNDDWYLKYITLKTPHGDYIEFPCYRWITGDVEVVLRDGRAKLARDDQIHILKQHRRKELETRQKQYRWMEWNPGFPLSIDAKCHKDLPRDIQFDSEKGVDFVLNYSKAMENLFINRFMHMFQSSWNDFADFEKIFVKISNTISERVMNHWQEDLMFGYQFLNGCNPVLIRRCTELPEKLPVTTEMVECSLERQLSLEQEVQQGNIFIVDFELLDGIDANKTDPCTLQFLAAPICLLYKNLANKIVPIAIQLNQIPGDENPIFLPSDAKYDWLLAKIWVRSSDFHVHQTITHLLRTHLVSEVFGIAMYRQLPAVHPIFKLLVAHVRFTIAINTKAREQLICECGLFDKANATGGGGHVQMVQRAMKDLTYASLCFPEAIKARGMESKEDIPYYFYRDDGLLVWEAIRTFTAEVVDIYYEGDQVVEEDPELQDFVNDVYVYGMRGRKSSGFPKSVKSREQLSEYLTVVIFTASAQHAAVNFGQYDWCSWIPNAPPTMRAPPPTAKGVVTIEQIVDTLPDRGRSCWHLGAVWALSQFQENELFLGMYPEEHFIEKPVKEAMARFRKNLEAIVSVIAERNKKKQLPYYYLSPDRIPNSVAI
As to the kind of experiment: 5-Lipoxygenase Enzyme Assay. It counts as biochemical. To be noted: 70 μM arachidonic acid, 10 minute incubation at room temperature, FOX reagent, absorbance at 620 nm; read-out: inhibition of 5-Lipoxygenase with an IC50. A digest of the protocol:
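Recombinant human 5-LOX in 50 mM Tris-HCl pH 7.4 was preincubated with compound, then 70 μM arachidonic acid was added for 10 min at room temperature. Hydroperoxide was read by FOX reagent (ferric xylenol orange, 1 h complex formation) as absorbance at 620 nm. Five concentrations in triplicate were tested, starting at 10 μM.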

Assay [2] deals with T2, porcine leukocyte 12/15-Lipoxygenase (Sus scrofa, UniProt P16469).
T2 sequence (P16469 1-663): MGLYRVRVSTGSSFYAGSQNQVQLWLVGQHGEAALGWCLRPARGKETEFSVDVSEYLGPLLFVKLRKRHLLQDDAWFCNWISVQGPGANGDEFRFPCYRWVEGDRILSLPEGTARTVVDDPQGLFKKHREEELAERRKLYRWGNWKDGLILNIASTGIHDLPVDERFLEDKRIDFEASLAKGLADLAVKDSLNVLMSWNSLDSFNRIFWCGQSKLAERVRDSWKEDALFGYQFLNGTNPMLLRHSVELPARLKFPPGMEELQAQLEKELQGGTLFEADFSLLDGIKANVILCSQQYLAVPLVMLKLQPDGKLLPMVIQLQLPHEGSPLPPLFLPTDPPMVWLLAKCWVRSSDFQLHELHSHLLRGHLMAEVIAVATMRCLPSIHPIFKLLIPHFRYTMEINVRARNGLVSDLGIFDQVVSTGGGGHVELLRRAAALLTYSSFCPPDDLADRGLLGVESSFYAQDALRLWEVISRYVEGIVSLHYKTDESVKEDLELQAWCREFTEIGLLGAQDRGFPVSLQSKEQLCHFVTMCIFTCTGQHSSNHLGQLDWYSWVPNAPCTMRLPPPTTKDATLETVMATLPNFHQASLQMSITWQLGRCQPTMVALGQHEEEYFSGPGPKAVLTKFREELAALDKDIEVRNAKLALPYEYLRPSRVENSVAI
As to the kind of experiment: 12/15-Lipoxygenase Enzyme Assay. It counts as biochemical. To be noted: 70 μM arachidonic acid, 10 minute incubation at room temperature, FOX reagent, absorbance at 620 nm; read-out: inhibition of 12/15-Lipoxygenase with an IC50. An excerpt:
This procedure was used for measuring the enzymatic activity of porcine leukocyte 12/15-Lipoxygenase using a […] method based on the ferric oxidation of xylenol orange.
• 96 well flat bottom microfilter plates (VWR, Catalog # 62402-933 9295) • Lipoxygenase screening assay buffer (Cayman, Catalog # 760710) • Porcine leukocyte 12/15-Lipoxygenase (Cayman, Catalog # 60300) • Arachidonic Acid (Sigma, Catalog # A3555) • Xylenol orange tetrasodium salt (Aldrich, Catalog # 227854) • Iron (II) sulfate heptahydrate (Sigma, Catalog # F7002) • Sulfuric acid (95-98%) [18M] • Methanol Procedure
Porcine Leukocyte 12/15-Lipoxygenase (Cayman Cat # 60300) was used in this assay. Test compound and/or vehicle was added to 1.3 μL 12/15-Lipoxygenase in 50 mM Tris-HCl buffer, pH 7.4. The reaction was initiated by addition of 70 μM arachidonic acid in Tris-HCl buffer, pH 7.4, and terminated after a 10 minute incubation at room temperature by addition of FOX reagent (25 mM sulfuric acid, 100 μM xylenol orange, 100 μM iron (II) sulfate, methanol:water 9:1). The yellow color of acidified xylenol orange was converted to a blue color by the lipid hydroperoxide-mediated oxidation of Fe^2+ ions and the interaction of the resulting Fe^3+ ions with the dye. The complex was allowed to form during a 1 hour incubation at room temperature with shaking. Absorbance of the Fe^3+ complex was then measured at […] using a spectrophotometer.
Negative controls contained enzyme during the incubation step but substrate was not added until after the FOX reagent. Compounds are screened at 5 concentrations in triplicate starting at 10 μM

Assay [3] deals with release of the leukotriene LTB4 from a neutrophil cell line (MPRO cell line). As to the kind of experiment: LTB4-Cell Assay. It counts as cell-based. The conditions noted are these: Mus musculus, 1 h, read-out: inhibition of LTB4 with an EC50. A digest of the protocol: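 Mouse promyelocytic cells differentiated to neutrophils with 10 μM all-trans retinoic acid for 72 h, then stimulated with 1 μM A23187 plus compound for 1 h at 37° C. Supernatant LTB4 quantified by competitive EIA; 5 concentrations in quadruplicate from 10 μM top.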

For assay [4], the system named is LTB4 production in human whole blood. In words: Inhibition of LTB4 Production in Blood. The assay is classed as cell-based. To be noted: 1 h, 20 μM A23187, 60 minutes at 37° C., LTB4 in plasma by ELISA, read-out: protection against LTB4 at an EC50. A digest of the protocol:
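Citrated human whole blood preincubated 15 min at 37 °C with compound (top final 30 μM, 1:3 dilutions, quadruplicate), then stimulated with 20 μM A23187 for 60 min at 37 °C. Plasma LTB4 quantified by ELISA; IC50 from percent inhibition versus vehicle.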
Background: In an ELISA, binding on a coated surface is turned into a signal by an enzyme label.

For `CCOC1CC2(CCC2)Oc2c(C)c(C)c(O)c(C)c21` (stereo not drawn) [4-ethoxy-5,7,8-trimethyl-3,4-dihydrospiro[chromene-2,1′-cyclobutan]-6-ol], the IC50 was less than 0.3 µM in assay [1] and less than 5 µM in assay [2]. Moreover, in assay [3], the concentration giving a half-maximal response (EC50) (as a rule, the midpoint of the concentration-response curve) was less than 5 µM.

For `Cc1c(C)c2c(c(C)c1O)CCC1(CCC1)O2` [5,7,8-trimethyl-3,4-dihydrospiro[chromene-2,1′-cyclobutan]-6-ol], the figures for the IC50 in assay [1] and in assay [2] were less than 0.3 µM and less than 5 µM, respectively. Besides, the concentration giving a half-maximal response (EC50) in assay [3] was less than 5 µM.

`Cc1c(O)c(CCC(C)C)c(C)c2c1CCC1(CCC1)O2` [5,8-dimethyl-7-(3-methylbutyl)-3,4-dihydrospiro[chromene-2,1′-cyclobutan]-6-ol]: the IC50 is less than 0.3 µM in assay [1] and less than 5 µM in assay [2]. The EC50 in assay [3] was less than 5 µM.

Turning to `Cc1c(C)c2c(c(C)c1O)CCC1(CCC1)S2` [5′,7′,8′-trimethyl-3′,4′-dihydrospiro[cyclobutane-1,2′-thiochromen]-6′-ol], the IC50 in assay [1] is less than 0.3 µM; in assay [2] it was less than 5 µM. In assay [3], the EC50 is less than 5 µM.

In the case of `Cc1c(C)c2c(c(C)c1O)C=CC1(CCC1)S2` [5′,7′,8′-trimethylspiro[cyclobutane-1,2′-thiochromen]-6′-ol], the IC50 in assay [1] was less than 0.3 µM; in assay [2], less than 5 µM. Also, the EC50 in assay [3] is less than 5 µM.

With `Cc1c(C)c2c(c(C)c1O)C(OC(=O)Nc1ccccc1)CCS2` (stereo not drawn) [6-hydroxy-5,7,8-trimethylthiochroman-4-yl phenylcarbamate], the IC50 was less than 0.3 µM in assay [1] and less than 5 µM in assay [2]. Also, in assay [3], the EC50 is less than 5 µM.

Consider `CO/N=C/C1=Cc2c(cc(C)c(O)c2C)OC12CCC2` [6-hydroxy-5,7-dimethylspiro[chromene-2,1′-cyclobutane]-3-carbaldehyde O-methyloxime], for which the IC50 in assay [2] was less than 5 µM. The figures for the half-maximal effective concentration (EC50) in assay [4] and in assay [3] were less than 10 µM and less than 5 µM, respectively.

Turning to `Cc1c(O)c(Cl)c(C)c2c1CCC1(CCC1)O2` [7-chloro-5,8-dimethyl-3,4-dihydrospiro[chromene-2,1′-cyclobutan]-6-ol], the IC50 in assay [1] was less than 0.3 µM; in assay [2], less than 5 µM. In addition, the EC50 in assay [3] was less than 5 µM.

Turning to `Cc1c(O)c(C)c2c(c1Cl)OC1(CCC1)CC2` [8-chloro-5,7-dimethyl-3,4-dihydrospiro[chromene-2,1′-cyclobutan]-6-ol], the IC50 in assay [1] is less than 0.3 µM; in assay [2] it was less than 5 µM. Further, the EC50 in assay [3] was less than 5 µM.

Consider `Cc1c(O)cc(Cl)c2c1CCC1(CCC1)O2` [8-chloro-5-methyl-3,4-dihydrospiro[chromene-2,1′-cyclobutan]-6-ol], for which the figures for the IC50 in assay [1] and in assay [2] were less than 0.3 µM and less than 5 µM, respectively. In addition, in assay [3], the concentration for a half-maximal effect (EC50) was less than 5 µM.

Consider `COC(=O)CSCC1Cc2c(C)c(O)c(C)c(C)c2OC12CCC2` (stereo not drawn) [methyl {[(6-hydroxy-5,7,8-trimethyl-3,4-dihydrospiro[chromene-2,1′-cyclobutan]-3-yl)methyl]thio}acetate], for which the results for the IC50 in assay [1] and in assay [2] were less than 0.3 µM and less than 5 µM, respectively. Besides, the EC50 in assay [3] was less than 5 µM.
